Tests used:
PC-12 cells = experiment: Neurite outgrowth in NGF-differentiated PC-12 cells; format: cell-based, rat; details: 0.5 μM
Description: The ellagitannins and their metabolites tested in the assays were synthesized or purchased from suppliers which included Funakoshi, Sigma, and Chemos. Stock solutions were aliquoted and stored at −20° C.
PC-12 cells (ATCC CRL-1721) were cultured at 37° C., 5% CO2 in poly L-lysine-coated culture flasks in complete culture medium (RPMI 1640+10% heat-inactivated horse serum+5% fetal bovine serum).
Cell differentiation was performed in culture flasks 24 h after plating, in complete medium supplemented with 100 ng/mL NGF (2.5 S NGF, Invitrogen). The NGF-supplemented medium was renewed every third day, and differentiation was induced over an 8-day period.
All compounds to be tested were prepared just before the experiment as a 50 mM stock solution in dimethylsulfoxide (DMSO). The final DMSO concentration was 0.1% in the medium of all experimental groups.
For neurite outgrowth measurements, differentiated cells were washed with phosphate-buffered saline (PBS), collected after detachment and replated at a density of 5,000 cells/well (biocoat imaging 96 well plate) in complete medium supplemented with 100 ng/mL NGF, with or without 10 μM SP600125 (negative control), 1 mM dbcAMP (positive control), or tested compound at 5×10^−7 M. In the undifferentiated control group, no NGF was added after replating.
After 72 h in culture, PC-12 cells were washed with PBS and fixed in 1% paraformaldehyde solution for 20 minutes. After 3 washes with PBS, immunofluorescence labeling was performed with Texas Red Maleimide probe, which reacts with thiol groups of cysteine residues of proteins, permitting the visualization of the entire cell morphology, including neurites.
Immunofluorescence analysis was performed in automated confocal microscopy. Images were acquired with a BD pathway 855 system, under X20 objective with 8×8 field montage. Neurite outgrowth was then measured from acquired images with the neurite module of Metamorph® software. Total and mean outgrowth, total and mean number of processes per cell, and total and percentage of cells with extensive outgrowth (defined as outgrowth longer than 20 μm) were analyzed.

[1] = system: primary dopaminergic tyrosine hydroxylase (TH)-positive neurons; experiment: Neurite outgrowth in primary dopaminergic TH-positive neurons; format: cell-based, rat; details: 72 h; compounds 0.1 μM, SP600125 10 μM, dbcAMP 1 mM (FIG. 14)
Description: Primary mesencephalic cultures were prepared from rat E14 embryos. Ventral mesencephalon was carefully dissected and dissociated. Cells were then plated in DMEM F12 medium containing 10% heat inactivated horse serum at the density of 100,000 cells/well (96-well plate), with or without the JNK-specific inhibitor SP600125 (10 μM) (which served as a negative control) or dbcAMP (1 mM) (which served as a positive control), or the compounds tested each at the doses of 0.1 μM.
72 h after plating, the effects on the neurite outgrowth of dopaminergic tyrosine hydroxylase (TH)-positive neurons were measured from images acquired by automated confocal microscopy (X4 objective, montage 4×4) and covering the entire well surface, and quantified using the Neurite outgrowth module of Metamorph® software. Several representative parameters of neurite outgrowth were thus generated: total and mean outgrowth, total and mean number of processes per cell, and total and percentage of cells with extensive outgrowth (defined as outgrowth longer than 20 μm) were analyzed. All experiments were performed in quadruplicate.

Compound	percent of cells showing significant outgrowth (>20 μm), increase vs differentiated cells (PC-12 cells; 72 h (FIG. 8))	number of processes (in words) (PC-12 cells; 72 h, differentiated PC-12 cells)	increase in branching [1]
O=C1OC[C@H]2OC(O)[C@H](O)[C@@H](O)[C@@H]2OC(=O)c2cc(O)c(O)c(O)c2-c2c(O)c(O)c3oc(=O)c4c(c(O)c(O)c5oc(=O)c2c3c54)-c2c1cc(O)c(O)c2O (mixture of isomers) [punicalin]	26%	induced an increase in the number of processes	
Oc1c2ccccc2c2c3c(cccc13)N=N2 [SP600125]			60%
CCCC(=O)Nc1ncnc2c1ncn2[C@@H]1O[C@@H]2COP(=O)(O)O[C@H]2[C@H]1OC(=O)CCC [dbcAMP, dibutyryl cyclic AMP]			86%

Source: US11234960B2, “Compositions and methods for improving mitochondrial function and treating neurodegenerative diseases and cognitive disorders” (Amazentis SA, priority 2010, dated 2022)
